Data set [1] has as its target T1, OATP1B1 (Homo sapiens, UniProt Q9Y6L6).
T1 construct: expressed in transfected cells; host or cells: A431
T1 sequence (Q9Y6L6 1-691): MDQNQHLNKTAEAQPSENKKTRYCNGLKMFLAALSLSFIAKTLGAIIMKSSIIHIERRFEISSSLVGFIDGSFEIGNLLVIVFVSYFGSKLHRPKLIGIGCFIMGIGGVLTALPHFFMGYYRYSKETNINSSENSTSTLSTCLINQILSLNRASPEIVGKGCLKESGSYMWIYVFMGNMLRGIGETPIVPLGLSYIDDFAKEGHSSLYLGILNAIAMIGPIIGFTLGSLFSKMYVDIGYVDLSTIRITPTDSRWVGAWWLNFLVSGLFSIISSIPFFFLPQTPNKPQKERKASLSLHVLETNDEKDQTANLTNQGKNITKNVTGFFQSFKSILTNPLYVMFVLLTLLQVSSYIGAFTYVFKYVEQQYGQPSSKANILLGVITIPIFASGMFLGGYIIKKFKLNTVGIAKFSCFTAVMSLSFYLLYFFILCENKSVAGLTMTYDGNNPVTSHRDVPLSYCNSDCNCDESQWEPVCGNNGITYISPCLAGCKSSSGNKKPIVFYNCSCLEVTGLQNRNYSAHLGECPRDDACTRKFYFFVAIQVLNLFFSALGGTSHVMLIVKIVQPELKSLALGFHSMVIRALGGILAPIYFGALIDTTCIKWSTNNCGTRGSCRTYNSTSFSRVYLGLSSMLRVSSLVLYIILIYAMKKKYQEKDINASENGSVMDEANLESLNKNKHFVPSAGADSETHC
Kind of data set: OATP1B1-mediated pyranine uptake in overexpressing A431 cells. The format is cell-based. As to the method: The human epidermoid carcinoma cell (A431) overexpressing OATP1A2, OATP1B1, OATP1B3, or OATP2B1 transporters and their mock control cells were generated previously as described. , Cell culture was maintained in DMEM supplemented with 10% fetal bovine serum, 2 mM L-glutamine, 100 units/mL penicillin, and 100 μg/mL streptomycin at 37 °C and 5% CO2.
The inhibitory effects of mycotoxins (Z14S and Z14GA) were examined using indirect fluorescence assays, where pyranine and SR101 were used as fluorescent substrates. , A431 cells overexpressing OATP1A2, OATP1B1/3, or OATP2B1 and their mock-transfected controls were seeded at a density of 8 × 10^4 cells/well onto 96-well plates and incubated for 18–22 h prior to transport measurements. The next day, plated cells were washed three times with 200 μL of PBS (phosphate-buffered saline, pH 7.4) and preincubated with 50 μL of transport buffer (pH 5.5; 125 mM NaCl, 4.8 mM KCl, 1.2 mM CaCl2, 1.2 mM KH2PO4, 12 mM MgSO4, 25 mM MES, and 5.6 mM glucose) with or without increasing concentrations of the mycotoxins tested (0.001–20 μM) for 5 min at 37 °C. The transport inhibition measurements were initiated by adding 50 μL of transport buffer containing the proper fluorescent substrate SR101 (0.5 μM, OATP1A2) or pyranine (10 μM for OATP1B1 or 20 μM for OATP1B3 and OATP2B1). After 10 min (OATP1A2), 15 min (OATP1B1 and OATP2B1), or 30 min (OATP1B3) incubation, the transport was terminated by washing the cells three times with ice-cold PBS. Regarding the individual OATP assays, we applied different incubation times to keep the substrate uptake in the linear range, , avoiding substrate depletion or saturation effects, as it is indispensable for the accurate assessment. Using an Enspire plate reader (PerkinElmer, Waltham, MA), the fluorescence was measured at excitation/emission wavelengths of 460/510 nm (pyranine) or 586/605 nm (SR101).
OATP-mediated transport was obtained by subtracting the activity of the mock control cells from the activity of the OATP-expressing cells. The transport activity (%) of the OATPs was calculated by comparing the fluorescence signal obtained in the absence of the compounds tested (set to 100%).

The target of the next data set is T2, OATP1B3 (Homo sapiens, UniProt Q9NPD5).
T2 construct: expressed in transfected cells; host or cells: A431
T2 sequence (Q9NPD5 1-702): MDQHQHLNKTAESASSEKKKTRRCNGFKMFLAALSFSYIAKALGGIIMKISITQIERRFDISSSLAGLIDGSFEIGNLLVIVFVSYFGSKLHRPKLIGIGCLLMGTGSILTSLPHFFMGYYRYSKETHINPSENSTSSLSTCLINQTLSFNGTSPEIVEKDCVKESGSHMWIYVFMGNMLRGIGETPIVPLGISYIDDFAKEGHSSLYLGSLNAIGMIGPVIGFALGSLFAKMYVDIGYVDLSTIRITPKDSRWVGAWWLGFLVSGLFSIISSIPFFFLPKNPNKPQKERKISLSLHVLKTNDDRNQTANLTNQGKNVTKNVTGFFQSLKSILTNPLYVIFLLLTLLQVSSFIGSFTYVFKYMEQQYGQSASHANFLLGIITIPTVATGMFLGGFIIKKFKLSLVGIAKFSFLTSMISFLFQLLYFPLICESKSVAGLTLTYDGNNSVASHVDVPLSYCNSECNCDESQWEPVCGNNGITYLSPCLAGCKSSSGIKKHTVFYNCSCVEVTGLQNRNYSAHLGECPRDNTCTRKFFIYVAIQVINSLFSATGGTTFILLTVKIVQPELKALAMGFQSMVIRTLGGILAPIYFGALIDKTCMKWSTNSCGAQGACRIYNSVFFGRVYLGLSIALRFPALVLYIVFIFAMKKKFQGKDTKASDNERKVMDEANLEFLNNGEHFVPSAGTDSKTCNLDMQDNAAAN
The arrangement: method as in earlier report. Particulars: same experimental model; ref earlier report; cited from earlier work.

In data set [2] the target is T1, OATP1B1. The arrangement: method as in earlier report. Particulars: same experimental model; ref earlier report; cited from earlier work.

Each structure is given as a SMILES string. Where two headings read alike, the source gives them in different places.

In general, IC50 refers to the midpoint of a concentration-inhibition curve. `C[C@H]1CCCC(=O)CCC/C=C/c2cc(OS(=O)(=O)O)cc(O)c2C(=O)O1` [Z14S, zearalenone-14-sulfate] yielded a half-inhibitory concentration (IC50) on OATP1B1 [1] of 0.27 µM. For the same molecule, at OATP1B1 [1] (20 μM, pyranine substrate, A431 cells), the “decrease in OATP1B1 transport activity” value is 80–100%. For the same molecule, the “stronger inhibition on OATP1B1 compared to ZEN” value on OATP1B1 [1] (ratio of IC50 values vs ZEN) is given as “more than 30 fold”.

As to `C[C@H]1CCCC(=O)CCC/C=C/c2cc(O)cc(O)c2C(=O)O1` [ZEN, Zearalenone], the IC50 on OATP1B3 is 8.1 µM; on OATP1B1 [2], more than 10 µM.

As for `C[C@H]1CCCC(=O)CCC/C=C/c2cc(O[C@@H]3O[C@H](C(=O)O)[C@@H](O)[C@H](O)[C@H]3O)cc(O)c2C(=O)O1` [Z14GA, Zearalenone-14-glucuronide], the IC50 at OATP1B1 [1] (pyranine 10 μM, 15 min, A431 cells, read-out: IC50 for OATP1B1) was more than 20 µM.

The values above are taken from PMC12311865, “In Vitro Evaluation of the Potential Interactions of Zearalenone-14-sulfate and Zearalenone-14-glucuronide with Human Cytochrome P450 Enzymes, Organic Anion Transporting Polypeptides, and ATP-Binding Cassette Multidrug Transporters” (ACS Omega, 2025).
